Experiments:
[1] = test system: human subjects; assay: human subject study of camphor added to pouches of smokeless tobacco; assay type: in vivo
Excerpt: Nicotine, for example, is an agonist of the nicotinic acetylcholine receptors, and can produce the sensory irritation, such as burning or stinging, in the mouth or throat, as well as the gastrointestinal discomfort sometimes associated with smokeless tobacco products.

[2] = test system: sensory nerve fibers; details: isolated mouse trachea model; Kichco et al. 2007; cited from earlier work
[3] = molecular target: TRPV1 sensory channel (Homo sapiens, UniProt Q8NER1); assay: TRPV1 activation in human tissue culture cells expressing the TRPV1 sensory channel; assay type: cell-based; details: activator capsaicin or camphor applied co-incident with curcumin or 5 minutes after curcumin
Sequence of TRPV1 sensory channel (Q8NER1 whole entry): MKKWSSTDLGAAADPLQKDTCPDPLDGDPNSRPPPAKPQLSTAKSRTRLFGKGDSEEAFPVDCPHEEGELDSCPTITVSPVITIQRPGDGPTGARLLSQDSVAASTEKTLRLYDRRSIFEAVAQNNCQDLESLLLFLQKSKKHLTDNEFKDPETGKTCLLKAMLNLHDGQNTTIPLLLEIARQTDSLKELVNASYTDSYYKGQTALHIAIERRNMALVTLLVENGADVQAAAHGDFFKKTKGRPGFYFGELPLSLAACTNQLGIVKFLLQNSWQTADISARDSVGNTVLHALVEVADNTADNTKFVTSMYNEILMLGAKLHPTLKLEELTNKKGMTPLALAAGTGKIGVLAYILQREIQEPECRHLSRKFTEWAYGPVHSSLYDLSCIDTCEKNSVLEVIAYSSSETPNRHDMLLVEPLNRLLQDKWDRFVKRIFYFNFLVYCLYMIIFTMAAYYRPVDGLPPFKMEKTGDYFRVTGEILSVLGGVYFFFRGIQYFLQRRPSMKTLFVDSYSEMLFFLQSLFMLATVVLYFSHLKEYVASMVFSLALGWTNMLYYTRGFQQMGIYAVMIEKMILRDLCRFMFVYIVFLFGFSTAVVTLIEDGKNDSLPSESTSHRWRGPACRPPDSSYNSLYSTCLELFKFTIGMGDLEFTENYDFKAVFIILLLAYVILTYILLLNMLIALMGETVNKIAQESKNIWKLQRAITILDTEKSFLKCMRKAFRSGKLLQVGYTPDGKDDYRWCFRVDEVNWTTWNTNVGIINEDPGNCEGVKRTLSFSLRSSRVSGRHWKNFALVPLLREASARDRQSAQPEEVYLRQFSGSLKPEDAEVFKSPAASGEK
Procedure: It will be further understood by those skilled in the art that active ingredients appropriate for use in the present smokeless tobacco product may function as antagonists to one or more receptors and/or channels and agonists to one or more receptors and/or channels. Compounds known to activate the TRPV1 channel were applied to human tissue culture cells expressing the TRPV1 sensory channel either co-incident with the application of curcumin or following the application of curcumin by 5 minutes. Camphor and capsaicin are both known activators of the TRPV1 channel. However, these two compounds activate the sensory channel by different mechanisms. Curcumin, on the other hand, is a potent antagonist of the TPRV1 sensory channel. When capasaicin or camphor were added to cells expressing the TRPV1 sensory channel with curcumin, TRPV1 sensory activation was inhibited.

Row | SMILES | sensation of burning at the pouch location and along the path of saliva that had been in contact with the pouch [1] | activation of sensory nerve fibers induced by nicotine [2] | TRPV1 sensory activation [3]
1 | CC12CCC(CC1=O)C2(C)C (stereo not drawn) [camphor] | reduced the sensation of burning | effectively inhibit | –
2 | COc1cc(/C=C/C(=O)CC(=O)/C=C/c2ccc(O)c(OC)c2)ccc1O [curcumin] | – | – | inhibited
